Results as given in ChEMBL document CHEMBL4033739, “Design and synthesis of novel δ opioid receptor agonists with an azatricyclodecane skeleton for improving blood-brain barrier penetration” (Bioorg Med Chem Lett, 2017).

Key:
[1] = target: T1, Delta-type opioid receptor (Homo sapiens, UniProt P41143); assay: Displacement of [3H]DPDPE from human recombinant DOR expressed in CHO cell membranes
[2] = target: T2, Mu-type opioid receptor (Homo sapiens, UniProt P35372); assay: Displacement of [3H]DAMGO from human recombinant MOR expressed in CHO cell membranes
[3] = target: T3, Kappa-type opioid receptor (Homo sapiens, UniProt P41145); assay: Displacement of [3H]U-69,593 from human recombinant KOR expressed in CHO cell membranes
[4] = species: Homo sapiens; assay: Selectivity index, ratio of Ki for human recombinant MOR expressed in CHO cell membranes to Ki for human recombinant DOR expressed in CHO cell membranes; format: cell-based
[5] = species: Homo sapiens; assay: Selectivity index, ratio of Ki for human recombinant KOR expressed in CHO cell membranes to Ki for human recombinant DOR expressed in CHO cell membranes; format: cell-based
[6] = target: T1, Delta-type opioid receptor; assay: Agonist activity at human recombinant DOR expressed in CHO cells assessed as cAMP accumulation; format: functional, cell-based
[7] = target: T1, Delta-type opioid receptor; assay: Agonist activity at human recombinant DOR expressed in CHO cells assessed as cAMP accumulation relative to SNC80; format: functional, cell-based
[8] = target: T2, Mu-type opioid receptor; assay: Agonist activity at human recombinant MOR expressed in CHO cells assessed as cAMP accumulation at 10 uM relative to DAMGO; format: functional, cell-based
[9] = target: T3, Kappa-type opioid receptor; assay: Agonist activity at human recombinant KOR expressed in CHO cells assessed as cAMP accumulation; format: functional, cell-based
[10] = target: T3, Kappa-type opioid receptor; assay: Agonist activity at human recombinant KOR expressed in CHO cells assessed as cAMP accumulation relative to U-69,593; format: functional, cell-based
[11] = target: T2, Mu-type opioid receptor; assay: Agonist activity at human recombinant MOR expressed in CHO cells assessed as cAMP accumulation; format: functional, cell-based
[12] = target: T2, Mu-type opioid receptor; assay: Agonist activity at human recombinant MOR expressed in CHO cells assessed as cAMP accumulation relative to DAMGO; format: functional, cell-based
[13] = target: T3, Kappa-type opioid receptor; assay: Agonist activity at human recombinant KOR expressed in CHO cells assessed as cAMP accumulation at 10 uM relative to U-69,593; format: functional, cell-based
[14] = Apparent permeability at 10 uM incubated for 60 mins by RBT-24 kit; format: physicochemical; conditions: rat, not told
[15] = test system: Mus musculus; assay: Antinociceptive activity in sc dosed ICR mouse assessed as reduction in acetic acid-induced writhing response administered 20 mins before acetic acid injection and measured for 20 mins post acetic acid injection; format: functional

T3 sequence (P41145 whole entry): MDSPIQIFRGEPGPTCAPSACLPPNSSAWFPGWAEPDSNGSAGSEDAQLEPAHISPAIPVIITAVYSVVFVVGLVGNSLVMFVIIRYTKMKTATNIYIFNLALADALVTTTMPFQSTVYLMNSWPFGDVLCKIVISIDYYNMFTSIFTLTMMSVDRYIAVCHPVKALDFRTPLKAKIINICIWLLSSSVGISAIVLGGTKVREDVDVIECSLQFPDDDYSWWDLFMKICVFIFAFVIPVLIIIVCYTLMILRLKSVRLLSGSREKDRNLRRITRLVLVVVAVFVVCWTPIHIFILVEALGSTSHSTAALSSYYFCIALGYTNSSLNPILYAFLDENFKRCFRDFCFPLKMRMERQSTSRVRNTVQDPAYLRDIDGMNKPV
T2 sequence (P35372 whole entry): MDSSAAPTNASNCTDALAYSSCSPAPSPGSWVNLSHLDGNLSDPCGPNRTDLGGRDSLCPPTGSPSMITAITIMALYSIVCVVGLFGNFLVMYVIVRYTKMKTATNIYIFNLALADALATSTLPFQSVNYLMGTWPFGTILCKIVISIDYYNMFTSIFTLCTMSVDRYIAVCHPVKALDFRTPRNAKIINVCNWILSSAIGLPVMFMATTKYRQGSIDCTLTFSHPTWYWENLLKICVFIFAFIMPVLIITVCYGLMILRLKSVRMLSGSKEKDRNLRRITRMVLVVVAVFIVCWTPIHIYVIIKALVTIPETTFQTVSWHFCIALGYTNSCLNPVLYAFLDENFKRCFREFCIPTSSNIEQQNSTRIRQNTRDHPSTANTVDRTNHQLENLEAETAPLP
T1 sequence (P41143 whole entry): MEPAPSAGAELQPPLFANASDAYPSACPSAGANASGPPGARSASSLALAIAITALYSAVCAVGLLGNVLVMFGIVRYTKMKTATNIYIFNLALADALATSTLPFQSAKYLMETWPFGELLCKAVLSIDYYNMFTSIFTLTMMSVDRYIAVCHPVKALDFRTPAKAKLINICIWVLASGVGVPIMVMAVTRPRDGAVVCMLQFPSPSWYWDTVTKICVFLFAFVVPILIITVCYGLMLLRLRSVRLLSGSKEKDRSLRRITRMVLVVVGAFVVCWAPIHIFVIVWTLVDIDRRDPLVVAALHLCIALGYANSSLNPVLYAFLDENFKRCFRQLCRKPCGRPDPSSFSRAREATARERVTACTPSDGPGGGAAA

Compound	Ki [1]	Ki [2]	Ki [3]	Ratio Ki [4]	Ratio Ki [5]	EC50 [6]	Emax [7]	Emax [8]	EC50 [9]	Emax [10]	EC50 [11]	Emax [12]	Emax [13]	Papp at 1 h, 10 µM [14]	ED50 [15]
Oc1ccc2c(c1)C13CCN(CC4CC4)C(C2)C12CCC1C3[C@@H](CN1c1cnccn1)C2 (stereo partly drawn)	356 pM	813 pM	479 pM	2.3	1.3	430 pM	71%	5.7%	200 pM	24%	–	–	–	–	–
Oc1ccc2c(c1)C13CCN(CC4CC4)C(C2)C12CCC1C3[C@@H](CN1c1ccccc1)C2 (stereo partly drawn)	1260 pM	953 pM	2430 pM	0.8	1.9	4700 pM	82%	–	8100 pM	54%	10000 pM	50%	–	–	–
O=C(c1ccoc1)N1C[C@H]2CC34CCC1C2C31CCN(CC2CC2)C4Cc2ccc(O)cc21 (stereo partly drawn)	313 pM	455 pM	221 pM	1.5	0.7	230 pM	93%	–	1400 pM	33%	155000 pM	50%	–	–	–
O=C(c1ccccc1)N1C[C@H]2CC34CCC1C2C31CCN(CC2CC2)C4Cc2ccc(O)cc21 (stereo partly drawn)	211 pM	578 pM	362 pM	2.7	1.7	310 pM	93%	4.7%	–	–	–	–	5.5%	18.5 ×10⁻⁶ cm/s	1.15 mg/kg
O=C(c1ccccn1)N1C[C@H]2CC34CCC1C2C31CCN(CC2CC2)C4Cc2ccc(O)cc21 (stereo partly drawn)	458 pM	726 pM	564 pM	1.6	1.2	350 pM	85%	6.5%	–	–	–	–	18%	–	–
Oc1ccc2c(c1)C13CCN(CC4CC4)C(C2)C12CCC1C3[C@@H](CN1Cc1ccccc1)C2 (stereo partly drawn)	585 pM	3440 pM	4260 pM	5.9	7.3	420 pM	90%	18%	4500 pM	36%	–	–	–	–	–
Oc1ccc2c(c1)C13CCN(CC4CC4)C(C2)C12CCC1C3[C@@H](CN1CC1CCCCC1)C2 (stereo partly drawn)	1460 pM	2500 pM	781 pM	1.7	0.5	1700 pM	82%	–	5700 pM	45%	21000 pM	17%	–	–	–
O=C(Oc1ccccc1)N1C[C@H]2CC34CCC1C2C31CCN(CC2CC2)C4Cc2ccc(O)cc21 (stereo partly drawn)	833 pM	826 pM	522 pM	1	0.6	1300 pM	92%	5.6%	2500 pM	27%	–	–	–	–	–
O=C(Nc1ccccc1)N1C[C@H]2CC34CCC1C2C31CCN(CC2CC2)C4Cc2ccc(O)cc21 (stereo partly drawn)	265 pM	545 pM	336 pM	2.1	1.3	1500 pM	42%	6.2%	300 pM	44%	–	–	–	–	–
